One assay concerns the target V600EBRAF. As to the kind of experiment: DELFIA kinase assay (BRAF V600E Kinase Assay). The following applies: for IC50: 100 μM ATP. In kind it is biochemical, human. On the procedure: Compounds were assessed in a kinase assay performed according to the following protocol.
^V600EBRAF was generated by infection of SF9 insect cells cultured in SF-900 II medium (Invitrogen, Paisley, Scotland) with a baculovirus containing full-length human BRAF with an N-terminal histidine tag and purified by nickel-agarose affinity chromatography.
Full-length rabbit MEK1 protein was expressed with a GST tag at the N-terminus and a C-terminal histidine tag in Escherichia coli JM109 bacteria and purified by nickel-agarose affinity chromatography.
Combine 4950 μL of DKB and 50 μL of 2.5 mg/mL GST-MEK stock obtained as described above (to give […] of MEK per 40 μL). Then add 22.5 μL of BRAF stock obtained as described above to give ˜0.2 μL of BRAF per 40 μL.
100 mM ATP stock in distilled water, dilute to 500 μM to give 100 μM final concentration in assay.
3. Plate out 40 μL of DKB1 for all inhibitors (test compounds), DMSO control, and optionally other control compounds.
5. Add inhibitors (test compounds) at 0.5 μL per well according to desired plate layout.
8. Pre-incubate with test compounds for 10 minutes at room temperature with shaking.
9. Add 10 μL of 500 μM ATP stock, in DKB, to give 100 μM assay concentration.
10. Seal plates with TopSeal and incubate at room temperature with shaking for 45 minutes.
12. Add 50 μL per well of antibody mix and incubate for 1 hour at room temperature with shaking.
14. Add 100 μL DELFIA enhancement solution per well, cover in foil, and incubate at room temperature for 30 minutes with shaking.
15. Read on Victor plate reader (Perkin-Elmer, Turku, Finland) using Europium protocol.
Values for the blank (Empty Vector) are subtracted from all values. The DMSO controls are set as 100% activity and assay points (the response) are calculated as a percentage of the DMSO control. Data are plotted using Graphpad Prism software and a non-linear regression line is calculated using a variable slope sigmoidal dose-response equation: Y=Bottom+[Top−Bottom]/[1+10^((Log EC50−X)*HillSlope)] where X is the logarithm of concentration and Y is the response. The IC50 generated by this procedure is the concentration of the drug that produces a percentage control fluorescence value midway between the saturation, and zero-effect plateaus. Three independent assays are usually performed and the mean IC50 is reported.

The subject of a further assay is hERG. The format is cell-based, human. The following applies: read-out: hERG Inhibition IC50. On the procedure:
Studies were conducted at Cyprotex Discovery in Cheshire, UK according to the contractor's protocol. The studies were performed on an IonWorks™ HT instrument (Molecular Devices Corporation), which automatically performs electrophysiology measurements in […] single cells simultaneously in a specialised 384-well plate (PatchPlate™). The cells used were Chinese hamster ovary (CHO) cells stably transfected with hERG (cell-line obtained from Cytomyx, UK). A single-cell suspension was prepared in extracellular solution (Dulbecco's phosphate buffered saline with calcium and magnesium pH 7-7.2) and aliquots added automatically to each well of a PatchPlate™. The cells were then positioned over a small hole at the bottom of each well by applying a vacuum beneath the plate to form an electrical seal. The vacuum was applied through a single compartment common to all wells which was filled with intracellular solution (buffered to pH 7.2 with HEPES). The resistance of each seal was measured via a common ground-electrode in the intracellular compartment and individual electrodes placed into each of the upper wells.
Electrical access to the cell was then achieved by circulating a perforating agent, amphotericin, underneath the PatchPlate™ and then measuring the pre-compound hERG current. An electrode was positioned in the extracellular compartment and a holding potential of −80 mV applied for 15 seconds. The hERG channels were then activated by applying a depolarising step to +40 mV for 5 seconds and then clamped at −50 mV for 4 seconds to elicit the hERG tail current, before returning to −80 mV for 0.3 seconds. […]. Quinidine, an established hERG inhibitor, was included as an experimental control. […]. The test compound was left in contact with the cells for 300 seconds before recording currents using the same voltage-step protocol as in the pre-compound scan. Each concentration was tested in 4 replicate wells.
Post-compound currents were expressed as a percentage of pre-compound currents and plotted against concentration for each compound. Where concentration-dependent inhibition was observed, the data were fitted to the following equation: y=(ymax−ymin)/(1+(x/x50)^s)+ymin.
y=(post-compound current/pre-compound current)×100;
x50=concentration required to inhibit current by 50% (IC50); and […]

Assay [1] relates to mice with collagen-induced arthritis. The following applies: cited from earlier work.
The target in a further assay is FGFR1. Put plainly: Z'-LYTE biochemical kinase assay. The following applies: ATP 100 μM. As for the experimental part:
(§1) Activity Against Other Targets
(§2) Studies were conducted at Life Technologies in Paisley according to the contractor's protocol. TBAP-01 was dissolved in DMSO and assayed at final concentrations ranging from 10 μM to 0.5 nM in 1% DMSO, in the presence of an ATP concentration of 100 μM. IC50 values for test compounds were determined using the Z'-LYTE® biochemical assay employing a fluorescence-based, coupled-enzyme format based on the differential sensitivity of phosphorylated and non-phosphorylated peptides to proteolytic cleavage.

For another assay, the target named is p38γ. As to the kind of experiment: Z'-LYTE biochemical kinase assay. The following applies: ATP 100 μM. As for the experimental part: as §1, §2
Another assay addresses PDGFRβ. Put plainly: Z'-LYTE biochemical kinase assay. The following applies: ATP 100 μM. As for the experimental part: as §1, §2
Another assay deals with Src. As to the kind of experiment: Z'-LYTE biochemical kinase assay. The following applies: ATP 100 μM. As for the experimental part:
as §1, §2

Another assay has as its target Lck. As to the kind of experiment: Z'-LYTE biochemical kinase assay. The following applies: ATP 100 μM. On the procedure:
as §1, §2

In a further assay the target is EGFR. As to the kind of experiment: Z'-LYTE biochemical kinase assay. The following applies: ATP 100 μM. As for the experimental part:
as §1, §2

The target of the next assay is CRAF. Put plainly: Z'-LYTE biochemical kinase assay. The following applies: ATP 100 μM. On the procedure:
as §1, §2

In a further assay the target is p38α. Put plainly: Z'-LYTE biochemical kinase assay. The following applies: ATP 100 μM. As for the experimental part: as §1, §2
Another assay concerns the target KDR. As to the kind of experiment: Z'-LYTE biochemical kinase assay. The following applies: ATP 100 μM. On the procedure:
as §1, §2

Another assay addresses PDGFRα. As to the kind of experiment: Z'-LYTE biochemical kinase assay. The following applies: ATP 100 μM. As for the experimental part:
as §1, §2

A further assay has as its target MET. As to the kind of experiment: Z'-LYTE biochemical kinase assay. The following applies: ATP 100 μM. On the procedure: as §1, §2
In the next assay the test system is Tie-2. As to the kind of experiment: Kinase profiling, radioactive (33P-ATP) filter-binding assay. The following applies: at 1 μM. In kind it is biochemical. As for the experimental part:
as §1
(§3) Additional studies were conducted at The International Centre for Kinase Profiling in Dundee according to the contractor's protocol. TBAP-01 was dissolved in DMSO and assayed at a final concentration of 1 μM in 2% DMSO against 131 kinases. The assays were carried out using a radioactive (^33P-ATP) filter-binding assay.

The next assay has as its system TrkA. Described as above. The format is biochemical. The following applies: at 1 μM. On the procedure:
as §1, §3

In a further assay the test system is DDR2. The description is as above. The format is biochemical. The following applies: at 1 μM. As for the experimental part: as §1, §3
The test system of another assay is TAK1. The assay is described as above. The format is biochemical. The following applies: at 1 μM. On the procedure: as §1, §3
The next assay concerns YES1. Described as above. The following applies: at 1 μM. In kind it is biochemical. On the procedure:
as §1, §3

For a further assay, the system named is TESK1. Described as above. The format is biochemical. The following applies: at 1 μM. On the procedure:
as §1, §3

The subject of another assay is MINK1. Described as above. The format is biochemical. The following applies: at 1 μM. As for the experimental part: as §1, §3
In another assay the test system is IGF1Rβ. The description is as above. The format is biochemical. The following applies: not stated whether inhibition or remaining activity. On the procedure:
as §1, §3

Another assay concerns ABL. The assay is described as above. The format is biochemical. The following applies: at 1 μM. On the procedure: as §1, §3
The test system of assay [2] is mutant BRAF WM266.4 cells. As to the kind of experiment: Cell based phospho-ERK assay. The following applies: Homo sapiens, WM 266-4, 6 h, read-out: Cell-Based Phospho-ERK Assay IC50.
Procedure: Cell Based Phospho-ERK Assay (Mutant BRAF WM266.4 Cells)
Compounds were assessed using a cell-based assay which was performed according to the following protocol.
Plate out 16,000 mutant BRAF WM266.4 cells/well in 99 μL medium in a 96-well plate.
Add 1 μL test compound to the cells (total 1 μL solution).
Incubate the cells with test compound for 6 hours at 37° C.
Read Europium Time Resolved Fluorescence in Victor2 plate reader (Perkin-Elmer, Turku, Finland).
Note that Europium counts are normalised for protein levels by dividing counts by absorbance.
Values for the blank (no cells) are subtracted from all values. The DMSO controls are set as 100% activity and assay points (the response) are calculated as a percentage of the DMSO control. Data are plotted using Graphpad Prism software and a non-linear regression line is calculated using a variable slope sigmoidal dose-response equation: Y=Bottom+[Top−Bottom]/[1+10^((Log EC50−X)*HillSlope)] where X is the logarithm of concentration and Y is the response). The IC50 generated by this procedure is the concentration of the drug that produces a percentage control fluorescence value midway between the saturation, and zero-effect plateaus. Three independent assays are usually performed and the mean IC50 is reported.
The mark [3] stands for this setting: CHO cells stably transfected with hERG, tail current.

Where two headings read alike, the source gives them in different places.

For `Cn1c(=O)[nH]c2nccc(Oc3ccc(NC(=O)Nc4cc(C(C)(C)C)nn4-c4cccc(F)c4)c(F)c3)c21` [AA-04, reference compound], at V600EBRAF, half-maximal inhibition (IC50) required 650 nM.
On to `Cc1ccc(-n2nc(C(C)(C)C)cc2NC(=O)Nc2ccc(Oc3ccnc4[nH]c(=O)cnc34)cc2F)cc1` [AA-018, reference compound], for which the IC50 on V600EBRAF was 64 nM; with hERG (setting [3]), above 100000 nM.
In the same order, the values of `CC(C)(C)c1cc(NC(=O)Nc2ccc(Oc3ccnc4[nH]c(=O)cnc34)cc2F)n(-c2ccccc2)n1` [AA-019, reference compound] are 55 nM and above 100000 nM.
Regarding `COc1ccc(-n2nc(C(C)(C)C)cc2NC(=O)Nc2ccc(Oc3ccnc4[nH]c(=O)cnc34)cc2F)cn1` [AA-062, reference compound], the IC50 on V600EBRAF was 79 nM; in the assay on hERG (setting [3]), above 100000 nM.
For `Cc1ccc(-n2nc(C(C)(C)C)cc2NC(=O)Nc2ccc(Oc3ccnc4[nH]c(=O)cnc34)cc2F)cn1` [AA-084, reference compound], in that order: 710 nM and 53000 nM.
Consider `Clc1ccc(Nc2nnc(Cc3ccncc3)c3ccccc23)cc1` [PTK787/ZK222584], for which, in [1], the “inhibition of knee swelling” value was 40% and the “inhibition of severity scores” value is 51%.
Turning to `CC(C)(C)c1cc(NC(=O)Nc2ccc(Oc3ccnc4[nH]c(=O)cnc34)cc2F)n(-c2cccc(F)c2)n1` [TBAP-01], the “fold more potent than Compound AA-04 on the BRAF kinase assay” value in the assay with V600EBRAF is given as 10 fold. Moreover, the IC50 was 62 nM at V600EBRAF; above 100000 nM in the assay with hERG (setting [3]); 470 nM against FGFR1; 220 nM at p38γ; 740 nM at PDGFRβ; 27 nM against Src. For the same molecule, the IC50 came out at 19 nM on Lck; 1900 nM at EGFR; 33 nM against CRAF; 470 nM at p38α; 120 nM against KDR; 800 nM against PDGFRα. The IC50 on MET was determined as 1400 nM. Also, the “fold more potent than Compound AA-084 on the BRAF kinase assay” value in the assay on V600EBRAF (vs AA-084) is 11 fold. In addition, in the assay on Tie-2, the Tie-2 activity remaining is 3% activity remaining at 1 μM. Besides, the TrkA activity remaining in the assay on TrkA is reported as 6% activity remaining at 1 μM. Also, the DDR2 activity remaining in the assay with DDR2 is given as 3% activity remaining at 1 μM. Further, the TAK1 activity remaining in the assay on TAK1 is listed as 6% activity remaining at 1 μM. In addition, the YES1 activity remaining in the assay with YES1 is reported as 6% activity remaining at 1 μM. In addition, the TESK1 activity remaining in the assay with TESK1 is 5% activity remaining at 1 μM. For the same molecule, the MINK1 activity remaining with MINK1 was 4% activity remaining at 1 μM. The “IGF1Rβ % @ 1 μM” value with IGF1Rβ was 78% @ 1. Further, in the assay on ABL, the ABL activity remaining is given as 4% activity remaining at 1 μM.
For the molecule `Cc1cccc(-n2nc(C(C)(C)C)cc2NC(=O)Nc2ccc(Oc3ccnc4[nH]c(=O)cnc34)cc2F)c1` [TBAP-02], the IC50 at V600EBRAF came to 99 nM; in the assay on hERG, 65000 nM.
Turning to `CC(C)(C)c1cc(NC(=O)Nc2ccc(Oc3ccnc4[nH]c(=O)cnc34)cc2F)n(-c2cccc(C(F)(F)F)c2)n1` [TBAP-03], the IC50 at V600EBRAF is 130 nM; with hERG (setting [3]) it was above 100000 nM.
In the same order, the values of `COc1cccc(-n2nc(C(C)(C)C)cc2NC(=O)Nc2ccc(Oc3ccnc4[nH]c(=O)cnc34)cc2F)c1` [TBAP-04, 1-(3-tert-butyl-1-(3-methoxyphenyl)-1H-pyrazol-5-yl)-3-(2-fluoro-4-(3-oxo-3,4-dihydropyrido[3,2-b]pyrazin-8-yloxy)phenyl)urea] are 47 nM and above 100000 nM.
Regarding `CC(C)(C)c1cc(NC(=O)Nc2ccc(Oc3ccnc4[nH]c(=O)cnc34)cc2F)n(-c2ccnc(O)c2)n1` [TBAP-05, 1-(3-tert-butyl-1-(2-oxo-1,2-dihydropyridin-4-yl)-1H-pyrazol-5-yl)-3-(2-fluoro-4-(3-oxo-3,4-dihydropyrido[3,2-b]pyrazin-8-yloxy)phenyl)urea], the IC50 against V600EBRAF was found to be 390 nM; in assay [2] it was 450 nM.

(Values after patent publication US10167282B2, “1-(5-tert-butyl-2-aryl-pyrazol-3-yl)-3-[2-fluoro-4-[(3-oxo-4H-pyrido [2, 3-B]pyrazin- 8-yl)oxy]phenyl]urea derivatives as RAF inhibitors for the treatment of cancer” (CANCER RESEARCH TECHNOLOGY LIMITED, priority 2013, dated 2019).)
